# Assay results reported in patent US5658908A (priority 1992, dated 1997).
# pIC50: −log10 of the molar value. Read-outs that look alike come from different tables or passages of the source.
# Tests used:
# mouse vas deferens = molecular target: T1, mouse vas deferens (Mus musculus, UniProt P32300); assay: cell-based; format: cell-based
# T1 construct: Vasa deferentia were removed from mice; from tissue; host or cells: mouse vas deferens
# guinea pig ileum = assay: Inhibition of electrically stimulated contraction of guinea pig ileum; format: cell-based; conditions: Cavia porcellus, mean of (n) experiments, read-out: Guinea Pig lleum ED50
# Delta Receptor [1] = molecular target: T2, Delta Receptor (Rattus norvegicus, UniProt P33533); assay: Delta receptor binding, rat brain membranes; design: species or system rat (Sprague-Dawley)
# T2 construct: Rat (Sprague-Dawley) brain membranes were prepared; from tissue; host or cells: rat (Sprague-Dawley) brain membranes
# T2 sequence (P33533 whole entry): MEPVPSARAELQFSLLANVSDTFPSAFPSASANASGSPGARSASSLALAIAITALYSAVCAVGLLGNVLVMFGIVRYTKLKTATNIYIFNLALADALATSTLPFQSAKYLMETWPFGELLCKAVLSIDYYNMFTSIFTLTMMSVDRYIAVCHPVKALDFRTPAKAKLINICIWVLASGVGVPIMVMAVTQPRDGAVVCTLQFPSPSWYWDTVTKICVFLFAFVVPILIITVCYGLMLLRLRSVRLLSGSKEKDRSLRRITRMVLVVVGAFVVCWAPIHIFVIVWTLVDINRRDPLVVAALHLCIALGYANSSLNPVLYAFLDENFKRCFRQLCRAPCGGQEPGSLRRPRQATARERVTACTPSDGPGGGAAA
# Mu Receptor = molecular target: T3, Mu Receptor (Rattus norvegicus, UniProt P33535); assay: Mu receptor binding, rat brain membranes; design: species or system rat (Sprague-Dawley)
# T3 construct: Rat (Sprague-Dawley) brain membranes were prepared; from tissue; host or cells: rat (Sprague-Dawley) brain membranes
# T3 sequence (P33535 whole entry): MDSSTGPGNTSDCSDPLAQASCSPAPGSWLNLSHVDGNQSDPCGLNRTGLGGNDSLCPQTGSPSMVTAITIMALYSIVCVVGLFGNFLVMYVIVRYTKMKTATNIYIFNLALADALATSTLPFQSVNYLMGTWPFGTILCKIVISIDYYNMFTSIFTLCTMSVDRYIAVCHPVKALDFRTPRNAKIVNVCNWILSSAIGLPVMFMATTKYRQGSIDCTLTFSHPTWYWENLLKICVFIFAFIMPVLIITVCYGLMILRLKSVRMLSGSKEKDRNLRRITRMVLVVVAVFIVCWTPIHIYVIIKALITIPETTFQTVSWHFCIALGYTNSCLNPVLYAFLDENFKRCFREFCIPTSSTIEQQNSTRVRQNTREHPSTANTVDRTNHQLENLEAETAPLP
# delta-opioid receptor = assay: Tail flick test, injection into brain (icv); format: in vivo; conditions: mice
# delta receptor [2] = molecular target: delta receptor (Mus musculus, UniProt P32300); assay: Delta opioid receptor agonist activity; conditions: in words
# delta receptor, sequence (P32300 whole entry): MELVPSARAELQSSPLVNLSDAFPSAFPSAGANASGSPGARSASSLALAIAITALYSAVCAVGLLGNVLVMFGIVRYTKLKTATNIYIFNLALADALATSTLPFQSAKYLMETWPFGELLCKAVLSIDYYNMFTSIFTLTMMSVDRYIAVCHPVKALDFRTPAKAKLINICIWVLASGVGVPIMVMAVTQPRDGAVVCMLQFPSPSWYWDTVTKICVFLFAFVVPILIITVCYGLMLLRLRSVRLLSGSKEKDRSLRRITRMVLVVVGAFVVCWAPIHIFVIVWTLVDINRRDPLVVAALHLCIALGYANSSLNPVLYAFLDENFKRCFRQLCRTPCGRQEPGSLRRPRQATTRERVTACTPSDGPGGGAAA
# [3] = electrically stimulated, 37° C., mean of (n) experiments, read-out: Mouse Vas Deferens ED50
# [4] = 125I-[D-Ala2,D-Leu5]enkephalin 0.24 nM with mu-agonist morphiceptin analog, 24° C., 60 min, mean of (n) experiments, read-out: Delta Receptor IC50
# [5] = 125I-[D-Ala2,N-MePhe4,Met(O)ol5]enkephalin 0.1 nM, 24° C., 60 min, mean of (n) experiments, read-out: Mu Receptor IC50
# T1 sequence (P32300 whole entry): as above
SMILES,pIC50 (guinea pig ileum),pIC50 (Delta Receptor [1]; [4]),pIC50 (Mu Receptor; [5]),pIC50 (mouse vas deferens),further results
"CCN(CC)C(=O)c1ccc(C(C2=C(C)CN(C)C(C)C2)c2cccc(O)c2)cc1 (racemic) [Example 51, (±)-(R*, R*) or (R*, S*)-N,N-diethyl-4-(3-hydroxy-α-(1,2,5,6-tetrahydro-1,3,6-trimethyl-4-pyridyl)benzyl)benzamide]",5.52,8.60,6.89,–,pIC50 (mouse vas deferens; [3]): 7.28
"C=CCN1C[C@H](C)N([C@H](c2ccc(C(=O)N(CC)CC)cc2)c2cccc(O)c2)C[C@H]1C [Example 6a, (+)-4-((αR)-α-((2S,5R)-4-Allyl-2,5-dimethyl-1-piperazinyl)-3-hydroxybenzyl)-N,N-diethylbenzamide]",7.08,8.92,–,9.77,–
"C=CCN1C[C@H](C)N([C@H](c2ccc(C(=O)N(CC)CC)cc2)c2cccc(O)c2)C[C@H]1C (relative stereo) [Example 6, (±)-4-((αR*)-α-((2S*,5R*)-4-Allyl-2,5-dimethyl-1-piperazinyl)-3-hydroxybenzyl)-N,N-diethylbenzamide]",6.84,8.74,–,9.70,–
"C=CCN1C[C@H](C)N([C@H](c2ccc(S(=O)(=O)N(CC)CC)cc2)c2cccc(O)c2)C[C@H]1C (relative stereo) [Example 59, (±)-4-((αR*)-α-((2S*,5R*)-4-Allyl-2,5-dimethyl-1-piperazinyl)-3-hydroxybenzyl)-N,N-diethylbenzenesulfonamide]",5.74,7.70,7.00,8.59,–
"C=CCN1C[C@H](C)N([C@@H](c2cccc(O)c2)c2cccc(C(=O)N(CC)CC)c2)C[C@H]1C (relative stereo) [Example 84, (±)-3-((αR*)-α-((2S*,5R*)-4-allyl-2,5-dimethyl-1-piperazinyl)-3-hydroxybenzyl)-N,N-diethylbenzamide]",8.00,8.80,–,8.07,–
"C=CCN1C[C@H](C)N([C@H](c2ccc(C(=O)N(CC)CCO)cc2)c2cccc(O)c2)C[C@H]1C (relative stereo) [Example 60, (±)-4-((αR*))-α-((2S*,5R*)-4-Allyl-2,5-dimethyl-1-piperazinyl)-3-hydroxy-benzyl)-N-ethyl-N-(2-hydroxyethyl)benzamide]",7.07,8.19,7.70,9.52,–
"CCN(CC)C(=O)c1ccc([C@H](c2cccc(O)c2)N2C[C@H](C)N(C)C[C@@H]2C)cc1 [Example 12, (+)-N,N-diethyl-4-(3-hydroxy-(αR)-α-((2S,5S)-2,4,5-trimethyl-1-piperazinyl)benzyl)benzamide]",< 5.00,8.92,6.82,8.70,–
C=C(C)CN1C[C@H](C)N(C(c2ccc(S(=O)(=O)N(CC)CC)cc2)c2cccc(O)c2)C[C@H]1C (stereo partly drawn) [Compound D],–,–,–,–,"agonist activity in the mouse vas deferens (mouse vas deferens; in words): potent agonist; analgesic activity in the tail flick test (delta-opioid receptor): provide analgesic activity; reversal of analgesia by injection of naloxone or delta-specific antagonists (ICI 174,864 or naltrindole) (delta-opioid receptor): reversible"
C=CCN1C[C@H](C)N([C@H](c2ccc(C(=O)NCC(=O)NCC(=O)O)cc2)c2cccc(O)c2)C[C@H]1C (relative stereo) [Compound H],–,–,–,–,delta receptor agonist activity (delta receptor [2]): delta receptor agonist activity
"C=CCN1C[C@H](C)N([C@H](c2cccc(O)c2)c2cccs2)C[C@H]1C (relative stereo) [Example 44, (±)-3-((R*)-((2S*,5R*)-4-Allyl-2,5-dimethyl-1-piperazinyl)(2-thienyl)methyl)phenol]",–,7.96,9.10,7.43,–
"C/C=C\CN1[C@H](C)CN(C(c2ccc(C(=O)N(CC)CC)cc2)c2cccc(O)c2)C[C@@H]1C (relative stereo) [Example 11, cis-4-(α-(4-((Z)-2-Butenyl)-3,5-dimethyl-1-piperazinyl)-3-hydroxybenzyl)-N,N-diethylbenzamide]",5.44,–,6.22,< 5.00,–
"C=CCN1C[C@@H](C)N([C@H](c2ccccc2)c2cccc(O)c2)C[C@@H]1C (relative stereo) [Example 9, (±)-3-((αR*)-α-((2R*,5S*)-4-Allyl-2,5-dimethyl-1-piperazinyl)benzyl)phenol]",8.40,7.80,8.96,7.40,–
"CCN(CC)C(=O)c1ccc([C@H](c2cccc(O)c2)N2C[C@H](C)NC[C@H]2C)cc1 (relative stereo) [Example 15, (±)-4-((αR*)-α-((2R*,5S*)-2,5-Dimethyl-1-piperazinyl)-3-hydroxybenzyl)-N,N-diethylbenzamide]",5.57,–,6.92,5.36,–
"C=CCN1C[C@H](C)N([C@H](c2ccc(C(=O)NCC(=O)NCC(=O)O)cc2)c2cccc(O)c2)C[C@H]1C (relative stereo) [Example 25, (±)-N-(4-((αR*)-α-((2S*,5R*)-4-Allyl-2,5-dimethyl-1-piperazinyl)-3-hydroxybenzyl)benzoyl)glycylglycine]",6.52,9.40,7.15,8.70,–
"CCN(CC)C(=O)c1ccc(C(c2cccc(O)c2)N2C[C@@H](C)N(C)[C@@H](C)C2)cc1 (relative stereo) [Example 34, N,N-Diethyl-4-(3-hydroxy-α-(cis-3,4,5-trimethyl-1-piperazinyl)benzyl)benzamide]",5.43,8.40,< 5.00,< 5.00,–
"C=CCN1C[C@H](C)N([C@H](c2cccc(O)c2)c2cccs2)C[C@H]1C [Example 67, (-)-3-((R)-((2S,5R)-4-Allyl-2,5-dimethyl-1-piperazinyl)(2-thienyl)methyl)phenol]",–,–,–,–,"pIC50 (mouse vas deferens; read-out: Mouse Vas Deferens ED50, electrically stimulated, 37° C., mean of (n) experiments): 7.70; pIC50 (Delta Receptor [1]; read-out: Delta Receptor IC50, 125I-[D-Ala2,D-Leu5]enkephalin 0.24 nM with mu-agonist morphiceptin analog, 24° C., 60 min, mean of (n) experiments): 7.57; pIC50 (Mu Receptor; read-out: Mu Receptor IC50, 125I-[D-Ala2,N-MePhe4,Met(O)ol5]enkephalin 0.1 nM, 24° C., 60 min, mean of (n) experiments): 9.52"
"C=CCN1C[C@H](C)N([C@H](c2ccc(S(C)(=O)=O)cc2)c2cccc(O)c2)C[C@H]1C (relative stereo) [Example 54, (±)-3-((αR*)-α-((2S*,5R*)-4-allyl-2,5-dimethyl-1-piperazinyl)-4-(methylsulfonyl)benzyl)phenol]",5.25,8.89,7.40,7.38,–
"C=CCN1C[C@H](C)N([C@H](c2ccc(C(=O)NCCOCCOCCNC(=O)c3ccc([C@H](c4cccc(O)c4)N4C[C@@H](C)N(CC=C)C[C@@H]4C)cc3)cc2)c2cccc(O)c2)C[C@H]1C (relative stereo) [Example 41, N,N'-((Ethylenedioxy)diethylene)bis(4-((R*)-α-((2S*,5R*)-4-allyl-2,5-dimethyl-1-piperazinyl)-3-hydroxybenzyl)benzamide)]",8.19,8.00,8.40,–,pIC50 (mouse vas deferens; [3]): 7.89
"C=CCN1C[C@H](C)N(C(c2ccc(C(=O)N(CC)CC)cc2)c2cccc(NC=O)c2)C[C@H]1C (mixture of isomers) [Example 36, (±)-trans-4-(α-(4-allyl-2,5-dimethyl-1-piperazinyl)-3-formamidobenzyl)-N,N -diethylbenzamide]",5.89,8.04,6.59,8.70,–
C=CCN1C[C@H](C)N([C@H](c2ccc(C(=O)N(CC)CCO)cc2)c2cccc(O)c2)C[C@H]1C (relative stereo) [Compound J],–,–,–,–,delta receptor agonist activity (delta receptor [2]): potent delta receptor agonist activity
